Test results taken from paper PMC8228600, “Design, Synthesis, In Vitro and In Vivo Evaluation of Heterobivalent SiFAlin-Modified Peptidic Radioligands Targeting Both Integrin αvβ3 and the MC1 Receptor—Suitable for the Specific Visualization of Melanomas?” (Pharmaceuticals, 2021).

Legend:
[1] = Ex vivo biodistribution in tumor-bearing nude mice (non-tumor tissues); conditions: male, Balb/cAnNRj-Foxn1nu/nu (nude), mouse, iv, total radioactivity, ex vivo after PET/CT scan, i.v., n = 3
Procedure: (§1) For the evaluation of the in vivo pharmacokinetics, the two most promising HBPLs—[^18F]2 with the highest affinity to both target receptors and [^18F]4 with the highest hydrophilicity and still reasonable binding affinities—were selected. For PET/CT imaging, 6-week-old male nude mice (Balb/cAnNRj-Foxn1^nu/nu) were subcutaneously injected with 5 × 10^5 B16F10 cells into the right flank and 2.0–2.5 × 10^6 U87MG cells into the left flank to generate the respective receptor-positive tumors. When the tumors reached a sufficient size for imaging, each mouse was administered 4.15 ± 2.28 MBq of [^18F]2 or 3.95 ± 2.06 MBq of [^18F]4 via the lateral tail vein under isoflurane anesthesia. To determine the receptor specificity of both peptide parts of the labeled HBPLs and their relative contribution to overall tumor uptake, blocking experiments were also performed. […] After i.v. injection of the tracers, a dynamic PET scan, followed by a CT scan, was performed. The resulting PET/CT images and time–activity curves (TACs) are depicted in Figure 6, Figure 7 and Figure 8. After completion of the diagnostic scans, the mice were sacrificed, their organs (blood, spleen, liver, kidney, pancreas, lung, heart, brain, bone, muscle, tail, tumors, stomach, colon and small intestine) were collected and measured in a γ-counter for ex vivo biodistribution (see Supplementary Materials Table S1 for detailed results).
(§2) Each male nude mouse (six weeks old) was injected subcutaneously with 5 × 10^5 B16F10 cells into the right flank and 2.0–2.5 × 10^6 U87MG cells into the left flank. The health status and tumor growth of the mice were monitored regularly until the animals could be examined after 15–21 days, depending on the tumor size. For the in vivo experiments, the ^18F-radiolabeled compound was diluted in 0.9% saline to give a final EtOH concentration of <10%. Each mouse was injected with 4.15 ± 2.28 MBq of [^18F]2 or 3.95 ± 2.06 MBq of [^18F]4 via the lateral tail vein under isoflurane anesthesia. […] Each ^18F-labeled compound was studied with or without blocking in at least three mice. Mice were measured under isoflurane anesthesia in a small PET/SPECT/CT animal imaging system. First, a dynamic PET scan was performed over 90 min and the scan was framed in 29 timeframes (10 × 1 min, 10 × 2 min, 6 × 5 min, 3 × 10 min). Images were reconstructed using 12 iterations, a maximum likelihood expectation maximization (MLEM) algorithm including corrections for scattered radiation and decay and a voxel size of 0.5 mm. All PET scans were immediately followed by CT acquisition at a voltage of 45 kV and a current of 400 μA. The images were reconstructed using the filtered back projection (FBP) algorithm with a voxel size of 250 μm. The analysis of the data, including the generation of TACs of the kidneys, liver and tumors and the MIPs, was performed via PMOD (v3.8). For ex vivo biodistribution, the mice were sacrificed directly after the PET/CT scan. Organs (blood, spleen, liver, kidneys, pancreas, lungs, heart, brain, bone, muscle, tail, tumors, stomach, colon and small intestine) were collected, weighed and their radioactivity measured in a γ-counter. The percentage injected dose per gram (% ID/g) of each tissue was calculated from the determined values, organ weights, reference values and injected activity.

[2] = Ex vivo biodistribution: uptake in B16F10 tumors and tumor-to-organ ratios; parameters: species or system nude mice (Balb/cAnNRj-Foxn1nu/nu); conditions: male, Balb/cAnNRj-Foxn1nu/nu (nude), mouse, iv, total radioactivity; for tissue uptake: B16F10 tumor (MC1R-positive); for tissue to tissue ratio: ex vivo biodistribution, mean (n = 3) ± SD
Procedure: as §1, §2

[3] = tested on: MC1R-positive B16F10 tumors; experiment: as above; parameters: species or system nude mice (Balb/cAnNRj-Foxn1nu/nu); conditions: NDP blocking (20 μg coinjected); ex vivo after PET/CT scan; i.v.; n = 3
Procedure: as §1, §2

[4] = Ex vivo biodistribution: uptake in U87MG tumors and tumor-to-organ ratios; parameters: species or system nude mice (Balb/cAnNRj-Foxn1nu/nu); conditions: male, Balb/cAnNRj-Foxn1nu/nu (nude), mouse, iv, total radioactivity; for tissue uptake: U87MG tumor (integrin αvβ3-positive); for tissue to tissue ratio: ex vivo biodistribution, mean (n = 3) ± SD
Procedure: as §1, §2

[5] = NDP blocking (20 μg coinjected), ex vivo after PET/CT scan, i.v., n = 3
[6] = c(RGDyK) blocking (200 μg coinjected), ex vivo after PET/CT scan, i.v., n = 3
[7] = double blocking (NDP + c(RGDyK)), ex vivo after PET/CT scan, i.v., n = 3
[8] = without blocking, ex vivo after PET/CT scan, i.v., n = 3

Structure (SMILES): CCCC[C@H](NC(=O)CNC(=O)CNC(=O)CCOCCOCCOCCOCCOCCOCCOCCOCCOCCC(=O)NCCCN(CCCNC(=O)CCOCCOCCOCCOCCOCCOCCOCCOCCOCCC(=O)NCCCC[C@@H]1NC(=O)[C@@H](Cc2ccccc2)NC(=O)[C@H](CC(=O)O)NC(=O)CNC(=O)[C@H](CCCNC(=N)N)NC1=O)CC(=O)N[C@@H](CCCCNC(=O)CCC[N+](C)(C)Cc1ccc([Si](F)(C(C)(C)C)C(C)(C)C)cc1)C(N)=O)C(=O)N[C@H]1CC(=O)NCCCC[C@@H](C(N)=O)NC(=O)[C@H](Cc2c[nH]c3ccccc23)NC(=O)[C@H](CCCNC(=N)N)NC(=O)[C@@H](Cc2ccccc2)NC(=O)[C@H](Cc2c[nH]cn2)NC1=O [[^18F]4]
- tissue uptake at 1.5 h ([1]; pancreas, c(RGDyK) blocking (200 μg coinjected), read-out: ID/g, pancreas): 0.66 ± 0.19 %ID/g
- tissue uptake at 1.5 h ([1]; pancreas, double blocking (NDP + c(RGDyK)), read-out: ID/g, pancreas): 0.32 ± 0.04 %ID/g
- tissue uptake at 1.5 h ([1]; pancreas, without blocking, read-out: ID/g, pancreas): 0.25 ± 0.08 %ID/g
- tissue uptake ([1]; small intestine, NDP blocking (20 μg coinjected), read-out: ID/g, small intestine): 1.6 ± 0.26 %ID/g
- tissue uptake ([1]; small intestine, c(RGDyK) blocking (200 μg coinjected), read-out: ID/g, small intestine): 1.46 ± 0.53 %ID/g
- tissue uptake ([1]; small intestine, double blocking (NDP + c(RGDyK)), read-out: ID/g, small intestine): 0.54 ± 0.08 %ID/g
- tissue uptake ([1]; small intestine, without blocking, read-out: ID/g, small intestine): 0.07 ± 0.02 %ID/g
- tissue uptake ([1]; spleen, NDP blocking (20 μg coinjected), read-out: ID/g, spleen): 1.51 ± 0.15 %ID/g
- tissue uptake ([1]; spleen, c(RGDyK) blocking (200 μg coinjected), read-out: ID/g, spleen): 1.71 ± 0.62 %ID/g
- tissue uptake ([1]; spleen, double blocking (NDP + c(RGDyK)), read-out: ID/g, spleen): 0.69 ± 0.1 %ID/g
- tissue uptake ([1]; spleen, without blocking, read-out: ID/g, spleen): 1.79 ± 0.31 %ID/g
- tissue uptake ([1]; stomach, NDP blocking (20 μg coinjected), read-out: ID/g, stomach): 1.03 ± 0.11 %ID/g
- tissue uptake ([1]; stomach, c(RGDyK) blocking (200 μg coinjected), read-out: ID/g, stomach): 0.99 ± 0.16 %ID/g
- tissue uptake ([1]; stomach, double blocking (NDP + c(RGDyK)), read-out: ID/g, stomach): 0.42 ± 0.03 %ID/g
- tissue uptake ([1]; stomach, without blocking, read-out: ID/g, stomach): 0.38 ± 0.13 %ID/g
- tissue uptake at 1.5 h ([1]; tail, NDP blocking (20 μg coinjected), read-out: ID/g, tail): 52.8 ± 5.59 %ID/g
- tissue uptake at 1.5 h ([1]; tail, c(RGDyK) blocking (200 μg coinjected), read-out: ID/g, tail): 44.3 ± 12.1 %ID/g
- tissue uptake ([1]; tail, double blocking (NDP + c(RGDyK)), read-out: ID/g, tail): 55.6 ± 7.12 %ID/g
- tissue uptake at 1.5 h ([1]; tail, without blocking, read-out: ID/g, tail): 25.3 ± 8.43 %ID/g
- tissue uptake [2, 5]: 1.33 ± 0.27 %ID/g
- tissue uptake [2, 6]: 2.29 ± 0.24 %ID/g
- tissue uptake [2, 7]: 2.49 ± 0.09 %ID/g
- tissue uptake [2, 8]: 2.58 ± 0.86 %ID/g
- tissue to tissue ratio ([2]; B16F10 tumor / blood, without blocking, read-out: tumor/blood ratio, B16F10): 4.36 ± 1.37
- tissue to tissue ratio ([2]; B16F10 tumor / kidneys, without blocking, read-out: tumor/kidneys ratio, B16F10): 0.38 ± 0.24
- tissue to tissue ratio ([2]; B16F10 tumor / liver, without blocking, read-out: tumor/liver ratio, B16F10): 0.36 ± 0.23
- tissue to tissue ratio ([2]; B16F10 tumor / muscle, without blocking, read-out: tumor/muscle ratio, B16F10): 38.6 ± 9.24
- tissue uptake at 1.5 h ([2]; B16F10 tumor, without blocking, ex vivo after PET/CT scan, i.v., n = 3): 2.58 ± 0.86 %ID/g
- ID/g, B16F10 tumor [3]: 1.33 ± 0.27 % ID/g
- tissue uptake [4, 5]: 2.53 ± 0.15 %ID/g
- tissue uptake [4, 6]: 2.67 ± 0.66 %ID/g
- tissue uptake [4, 7]: 0.9 ± 0.05 %ID/g
- tissue uptake [4, 8]: 3.92 ± 1.31 %ID/g
- tissue to tissue ratio ([4]; U87MG tumor / blood, without blocking, read-out: tumor/blood ratio, U87MG): 5.08 ± 0.75
- tissue to tissue ratio ([4]; U87MG tumor / kidneys, without blocking, read-out: tumor/kidneys ratio, U87MG): 0.4 ± 0.07
- tissue to tissue ratio ([4]; U87MG tumor / liver, without blocking, read-out: tumor/liver ratio, U87MG): 0.39 ± 0.14
- tissue to tissue ratio ([4]; U87MG tumor / muscle, without blocking, read-out: tumor/muscle ratio, U87MG): 45.7 ± 8.62
- tissue uptake at 1.5 h ([4]; U87MG tumor, without blocking, ex vivo after PET/CT scan, i.v., n = 3): 3.92 ± 1.31 %ID/g
